Test results as given in ChEMBL document CHEMBL1250507, “Novel indolylmaleimide acts as GSK-3beta inhibitor in human neural progenitor cells” (Bioorg Med Chem, 2010).
Calls of active or inactive are those of the source. No cut-off for these calls is given here.

How the values were obtained:
[1] = molecular target: T1, Glycogen synthase kinase-3 beta (Homo sapiens, UniProt P49841); details: ReNcell VM, at 3 µM
Target sequence in this assay (P49841 whole entry, looked up): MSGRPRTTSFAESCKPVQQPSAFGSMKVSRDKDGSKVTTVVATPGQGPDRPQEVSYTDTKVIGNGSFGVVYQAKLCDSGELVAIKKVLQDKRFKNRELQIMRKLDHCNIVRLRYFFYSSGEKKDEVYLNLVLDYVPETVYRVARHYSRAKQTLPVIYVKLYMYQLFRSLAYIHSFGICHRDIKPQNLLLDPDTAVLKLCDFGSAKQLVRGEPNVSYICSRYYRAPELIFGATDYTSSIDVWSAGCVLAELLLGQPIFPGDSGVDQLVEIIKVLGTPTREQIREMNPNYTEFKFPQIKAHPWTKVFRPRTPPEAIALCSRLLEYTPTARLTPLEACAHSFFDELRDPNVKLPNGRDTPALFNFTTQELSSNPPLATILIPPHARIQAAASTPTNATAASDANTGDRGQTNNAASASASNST

[2] = molecular target: T1, Glycogen synthase kinase-3 beta; experiment: Inhibition of GSK-3-beta-mediated Wnt signaling in human ReNcell VM cells assessed as increase in accumulation of beta-catenin at 1 uM after 2 hrs by ELISA relative to control
Target sequence in this assay (P49841 whole entry, looked up): as above

[3] = molecular target: T1, Glycogen synthase kinase-3 beta; details: ReNcell VM, 3 uM
Target sequence in this assay (P49841 whole entry, looked up): as above
Description: Inhibition of GSK3-beta in human ReNcell VM cells assessed as residual activity at 3 uM after 2 hrs by immunoprecipitation analysis relative to control

[4] = molecular target: T1, Glycogen synthase kinase-3 beta; details: ReNcell VM, 3 uM; remark: listed apart in the source
Target sequence in this assay (P49841 whole entry, looked up): as above

[5] = system: ReNcell VM; experiment: Antiproliferative activity against human ReNcell VM cells assessed as reduction of cell proliferation at 3 uM after 72 hrs; assay type: functional, cell-based
[6] = system: ReNcell VM; experiment: Cytotoxicity against human ReNcell VM cells assessed as cell viability at 3 uM after 72 hrs; assay type: functional, cell-based
[7] = Induction of neuronal differentiation in human ReNcell VM cells assessed as beta3-tubulin positive cells after 3 days by FACS analysis relative to control; assay type: functional
[8] = Antiproliferative activity against human ReNcell VM cells assessed as growth doubling time at 3 uM measured every 24 hrs; assay type: functional
[9] = molecular target: T1, Glycogen synthase kinase-3 beta; details: ReNcell VM, 3 uM; remark: listed apart in the source
Target sequence in this assay (P49841 whole entry, looked up): as above

[10] = molecular target: T1, Glycogen synthase kinase-3 beta; experiment: Inhibition of GSK3-beta after 30 mins by luminescence assay
Target sequence in this assay (P49841 whole entry): as the sequence (P49841 whole entry, looked up) above

Compound | inhibition [1] | also measured
CN1C(=O)C(NCCc2ccc(F)cc2)=C(c2c[nH]c3ccc(F)cc23)C1=O | inactive | –
O=C1Cc2c([nH]c3ccc(Br)cc23)-c2ccccc2N1 | – | inhibition [2]: 30%
Cn1cc(C2=C(c3ccc(Cl)cc3Cl)C(=O)NC2=O)c2ccccc21 [SB-216763] | 50% | residual activity [3]: 22%; inhibition [4]: 55%; Activity [5]: Active; Activity [6]: Not toxic; Activity [7]: 3.2%; Time [8]: 24.4 h; inhibition [9]: inactive
COc1ccc2[nH]cc(C3=C(NCCc4ccc(F)cc4)C(=O)N(C)C3=O)c2c1 | inactive | –
Cc1[nH]c2ccccc2c1C1=C(NCCc2ccc(Cl)cc2)C(=O)N(C)C1=O | inactive | –
Cc1[nH]c2ccccc2c1C1=C(NCCc2ccc(F)c(F)c2)C(=O)N(C)C1=O | inactive | –
Cc1[nH]c2ccccc2c1C1=C(NCCc2ccc(F)cc2)C(=O)N(C)C1=O | 27% | IC50 [10]: 53 nM; residual activity [3]: 27%; Activity [5]: Active; Activity [7]: 3.7%; Time [8]: 26.5 h; inhibition [9]: Active
CCCCNC1=C(c2c(C)[nH]c3ccccc23)C(=O)N(C)C1=O | inactive | –
COc1ccc(CCNC2=C(c3c(C)[nH]c4ccccc34)C(=O)N(C)C2=O)cc1 | inactive | –
CN1C(=O)C(NCCc2ccc(F)cc2)=C(c2c[nH]c3ccccc23)C1=O | inactive | –
CCCCNC(=O)C1=C(c2c(C)[nH]c3ccccc23)C(=O)N(CCCC)C1=O | inactive | –
CCCCNC1=C(c2c(C)[nH]c3ccccc23)C(=O)N(CCCC)C1=O | inactive | –

The next lines start with results.

inhibition [1] | Compound | also measured
inactive | Cc1[nH]c2ccccc2c1C1=C(NCCc2ccccc2)C(=O)N(C)C1=O | –
inactive | CCOC(=O)C1=C(c2c(C)[nH]c3ccccc23)C(=O)N(C)C1=O | –
inactive | Cc1[nH]c2ccccc2c1C1=C(C(=O)N2CCCCC2)C(=O)N(C)C1=O | –
inactive | Cc1[nH]c2ccccc2c1C1=C(C(=O)N2CCN(c3ccccc3)CC2)C(=O)N(C)C1=O | –
inactive | CCCCNC(=O)C1=C(c2c(C)[nH]c3ccccc23)C(=O)N(C)C1=O | –
inactive | Cc1[nH]c2ccccc2c1C1=C(NCCc2c[nH]c3ccccc23)C(=O)N(C)C1=O | –
inactive | Cc1[nH]c2ccccc2c1C1=C(N2CCCCC2)C(=O)N(C)C1=O | –
inactive | Cc1[nH]c2ccccc2c1C1=C(NCCc2ccc(O)cc2)C(=O)N(C)C1=O | –
inactive | Cc1[nH]c2ccccc2c1C1=C(C(=O)N2CCOCC2)C(=O)N(C)C1=O | –
inactive | CCCCOC(=O)C1=C(c2c(C)[nH]c3ccccc23)C(=O)N(C)C1=O | –
inactive | Cc1[nH]c2ccccc2c1C1=C(N2CCOCC2)C(=O)N(C)C1=O | –
inactive | Cc1[nH]c2ccccc2c1C1=C(N2CCN(c3ccccc3)CC2)C(=O)N(C)C1=O | –
